Experiments:
[1] = target: T1, ABL1(E255K)-phosphorylated (Homo sapiens, UniProt P00519, E255K); assay: KINOMEscan scanEDGE; format: binding; settings: 20 uM
T1 construct: purchased Eurofins DiscoverX (KINOMEscan; SAFETYscan E/IC50 ELECT)

PAK1 = target: T2, PAK1 (Homo sapiens, UniProt Q13153); assay: KINOMEscan scanEDGE; format: binding; settings: 20 uM
T2 construct: purchased Eurofins DiscoverX (KINOMEscan; SAFETYscan E/IC50 ELECT)
T2 sequence (Q13153 whole entry): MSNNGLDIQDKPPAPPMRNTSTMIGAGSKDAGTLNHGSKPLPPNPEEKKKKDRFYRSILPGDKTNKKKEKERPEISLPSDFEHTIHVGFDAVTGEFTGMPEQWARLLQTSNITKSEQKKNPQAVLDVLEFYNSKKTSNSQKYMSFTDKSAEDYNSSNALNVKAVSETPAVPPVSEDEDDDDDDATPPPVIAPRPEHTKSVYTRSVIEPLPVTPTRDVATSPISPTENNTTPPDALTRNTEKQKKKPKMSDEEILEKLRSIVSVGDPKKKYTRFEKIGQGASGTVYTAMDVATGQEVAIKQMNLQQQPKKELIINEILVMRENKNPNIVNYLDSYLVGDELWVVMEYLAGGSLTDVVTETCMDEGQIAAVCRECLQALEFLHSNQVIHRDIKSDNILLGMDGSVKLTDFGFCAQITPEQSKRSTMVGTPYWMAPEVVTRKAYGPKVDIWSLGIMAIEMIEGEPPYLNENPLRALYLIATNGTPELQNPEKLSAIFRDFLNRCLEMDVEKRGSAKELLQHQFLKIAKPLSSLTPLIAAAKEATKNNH

T1 sequence (P00519 whole entry E255K): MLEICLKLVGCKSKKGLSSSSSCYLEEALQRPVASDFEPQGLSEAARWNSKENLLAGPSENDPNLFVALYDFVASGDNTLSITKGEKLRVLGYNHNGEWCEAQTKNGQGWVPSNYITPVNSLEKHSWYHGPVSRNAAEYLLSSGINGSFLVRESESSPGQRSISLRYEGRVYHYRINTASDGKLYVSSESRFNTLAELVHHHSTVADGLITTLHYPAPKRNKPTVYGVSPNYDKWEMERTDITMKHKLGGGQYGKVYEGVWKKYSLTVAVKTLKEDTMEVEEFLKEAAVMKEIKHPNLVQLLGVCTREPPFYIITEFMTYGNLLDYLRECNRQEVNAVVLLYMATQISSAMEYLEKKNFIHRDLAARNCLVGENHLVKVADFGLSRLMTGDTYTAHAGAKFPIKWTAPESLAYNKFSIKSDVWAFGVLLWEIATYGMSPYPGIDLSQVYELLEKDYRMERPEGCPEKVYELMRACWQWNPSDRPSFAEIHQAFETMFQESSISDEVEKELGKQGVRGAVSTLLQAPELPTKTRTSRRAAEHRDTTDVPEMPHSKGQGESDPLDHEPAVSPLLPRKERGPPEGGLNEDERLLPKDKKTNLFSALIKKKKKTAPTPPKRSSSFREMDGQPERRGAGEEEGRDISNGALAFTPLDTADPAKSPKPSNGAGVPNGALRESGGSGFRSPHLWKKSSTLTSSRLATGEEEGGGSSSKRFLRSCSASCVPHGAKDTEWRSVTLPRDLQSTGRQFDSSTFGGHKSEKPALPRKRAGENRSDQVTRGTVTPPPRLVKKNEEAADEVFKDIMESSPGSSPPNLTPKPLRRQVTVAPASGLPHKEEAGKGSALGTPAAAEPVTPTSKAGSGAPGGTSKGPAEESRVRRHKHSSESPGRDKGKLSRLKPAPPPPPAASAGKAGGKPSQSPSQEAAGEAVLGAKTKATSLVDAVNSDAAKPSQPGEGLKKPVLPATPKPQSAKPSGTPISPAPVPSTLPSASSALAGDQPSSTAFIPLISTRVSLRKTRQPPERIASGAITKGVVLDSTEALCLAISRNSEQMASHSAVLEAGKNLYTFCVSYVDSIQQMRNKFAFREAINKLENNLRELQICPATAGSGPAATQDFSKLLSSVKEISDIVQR

## O=c1ccc(-c2cnc(OCC(F)(F)F)nc2)nn1Cc1cncc(F)c1 [EDG-5506]
[1]
  binding, % of control: 83 % of control
PAK1
  binding, % of control: 100 % of control

Reference: paper PMC10178848, “Modulating fast skeletal muscle contraction protects skeletal muscle in animal models of Duchenne muscular dystrophy” (The Journal of Clinical Investigation, 2023)
